Laboratory results from patent US10947216B2, “Amide compounds and method for making and using” (Rigel Pharmaceuticals, Inc., priority 2016, dated 2021).
Where a name gives a salt, the structure may show the parent alone.

Key:
[1] = tested on: IL-23 (p19/p40); experiment: IL23-p19 ELISA, dendritic cells (DC differentiated from human PBMC, IFNγ primed), LPS stimulated; type: cell-based; settings: Dendritic cell, human PBMC-derived dendritic cells, 1 h compound pre-incubation, LPS 1 μg/ml 18 hours, 10 pt
How it was run: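 PBMC-derived DCs (GM-CSF 100 ng/ml + IL-4 20 ng/ml, 7 days) primed 24 h with IFNγ 50 ng/ml, 50K cells/well; compound pre-incubated 1 h at 37° C, then LPS, 18 h. Supernatant IL-23 by p19-capture/p40-detection chemiluminescent ELISA; cytotoxicity by Cell Titer Glo.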

[2] = tested on: IL-23p19; experiment: LPS Induced IL23p19 in THP-1 Cells (with IFNγ Primed) Assay; type: cell-based, human; settings: Homo sapiens, THP-1, THP-1 cells, IFNγ (50 ng/mL) primed, 1 hour compound pre-incubation, LPS 1 ug/mL 18 hours, 10 pt; read-out: IL23-p19 ELISA, THP1-IFNy, LPS, 10 pt EC50
How it was run: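 THP-1 cells (50K/well) primed ~18 h with IFNγ (50 ng/mL) in RPMI/10% FBS, then incubated with compound in duplicate for 18 h at 37° C. Supernatant IL-23p19 measured by chemiluminescent sandwich ELISA, giving EC50 by curve fitting. Toxicity assessed in parallel on the remaining cells by Cell Titer Glo.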

Work on `O=C(Nc1cn(C2COC2)nc1-c1ccccn1)c1cccc(-c2cncc(C(F)(F)F)c2)n1` [Compound I-132, N-(1-(oxetan-3-yl)-3-(pyridin-2-yl)-1H-pyrazol-4-yl)-5′-(trifluoromethyl)-[2,3′-bipyridine]-6-carboxamide] yielded an EC50 [1] of 7760 nM and an EC50 [2] of 54900 nM.
For `CN(C)c1cccc(-c2cccc(C(=O)Nc3cn(C)nc3-c3ccccn3)n2)c1` [Compound I-59, 6-(3-(dimethylamino)phenyl)-N-(1-methyl-3-(pyridin-2-yl)-1H-pyrazol-4-yl)picolinamide], the EC50 [1] was 2470 nM and the EC50 [2] was 23900 nM.
`COc1ccc(-c2nn(C)cc2NC(=O)c2cccc(-c3cn[nH]c3)n2)nc1` [Compound I-68, N-(3-(5-methoxypyridin-2-yl)-1-methyl-1H-pyrazol-4-yl)-6-(1H-pyrazol-4-yl)picolinamide] gave an EC50 [1] of 2410 nM and an EC50 [2] of 290 nM.
Molecule `Cc1ccc(-c2cccc(C(=O)Nc3cn(C)nc3-c3ccccn3)n2)cn1` [Compound I-16, 6′-methyl-N-(1-methyl-3-(pyridin-2-yl)-1H-pyrazol-4-yl)-[2,3′-bipyridine]-6-carboxamide] has an EC50 [1] of 1200 nM and an EC50 [2] of 6350 nM.
Molecule `Cn1cc(NC(=O)c2cncc(-c3cn[nH]c3)n2)c(-c2ccccn2)n1` [Compound I-122, N-(1-methyl-3-(pyridin-2-yl)-1H-pyrazol-4-yl)-6-(1H-pyrazol-4-yl)pyrazine-2-carboxamide] has an EC50 [1] of 3780 nM and an EC50 [2] of 873 nM.
`COC1CC(n2cc(NC(=O)c3cccc(-c4cn[nH]c4)n3)c(-c3ccccn3)n2)C1` (stereo not shown) [Compound I-163, N-(1-(3-methoxycyclobutyl)-3-(pyridin-2-yl)-1H-pyrazol-4-yl)-6-(1H-pyrazol-4-yl)picolinamide formate] showed an EC50 [1] of 1060 nM and an EC50 [2] of 371 nM.
In the case of `Cc1cncc(-c2cncc(C(=O)Nc3cn(C)nc3-c3ccccn3)n2)c1` [Compound I-121, N-(1-methyl-3-(pyridin-2-yl)-1H-pyrazol-4-yl)-6-(5-methylpyridin-3-yl)pyrazine-2-carboxamide], the EC50 [1] is reported as 1810 nM and the EC50 [2] is reported as 1070 nM.
`Cn1cc(NC(=O)c2cccc(-c3cn[nH]c3)n2)c(N2CCCCC2)n1` [Compound I-73, N-(1-methyl-3-(piperidin-1-yl)-1H-pyrazol-4-yl)-6-(1H-pyrazol-4-yl)picolinamide] was tested, and the EC50 [1] was 2160 nM and the EC50 [2] was 1770 nM.
`Cn1cc(NC(=O)c2cccc(-c3cncc(C4CC4)c3)n2)c(-c2ccccn2)n1` [Compound I-13, 5′-cyclopropyl-N-(1-methyl-3-(pyridin-2-yl)-1H-pyrazol-4-yl)-[2,3′-bipyridine]-6-carboxamide] was tested, and the EC50 [1] was 531 nM and the EC50 [2] was 1340 nM.
`Cc1cncc(-c2cccc(C(=O)Nc3cn(C(C)C)nc3-c3ccccn3)n2)c1` [Compound I-81, N-(1-isopropyl-3-(pyridin-2-yl)-1H-pyrazol-4-yl)-5′-methyl-[2,3′-bipyridine]-6-carboxamide] was tested, and the EC50 [1] was 6470 nM and the EC50 [2] was 2780 nM.
For `COCCOCCn1cc(NC(=O)c2cccc(-c3ccoc3)n2)c(-c2ccccn2)n1` [Compound I-151, 6-(furan-3-yl)-N-(1-(2-(2-methoxyethoxy)ethyl)-3-(pyridin-2-yl)-1H-pyrazol-4-yl)picolinamide 2,2,2-trifluoroacetate], the EC50 [1] was 4120 nM and the EC50 [2] was 7880 nM.
`Cn1cc(-c2cccc(C(=O)Nc3cn(C4COC4)nc3-c3ccccn3)n2)cn1` [Compound I-134, 6-(1-methyl-1H-pyrazol-4-yl)-N-(1-(oxetan-3-yl)-3-(pyridin-2-yl)-1H-pyrazol-4-yl)picolinamide] showed an EC50 [1] of 2200 nM and an EC50 [2] of 1260 nM.
`Cn1cc(NC(=O)c2cccc(-c3cncc(NS(C)(=O)=O)c3)n2)c(-c2ccccn2)n1` [Compound I-34, N-(1-methyl-3-(pyridin-2-yl)-1H-pyrazol-4-yl)-5′-(methylsulfonamido)-[2,3′-bipyridine]-6-carboxamide] gave an EC50 [1] of 16100 nM and an EC50 [2] of 71900 nM.
Work on `Cn1cc(NC(=O)c2cccc(-c3cncc(NC4CC4)c3)n2)c(-c2ccccn2)n1` [Compound I-27, 5′-(cyclopropylamino)-N-(1-methyl-3-(pyridin-2-yl)-1H-pyrazol-4-yl)-[2,3′-bipyridine]-6-carboxamide] yielded an EC50 [1] of 342 nM and an EC50 [2] of 7020 nM.
Molecule `Cn1cc(NC(=O)c2cccc(-c3cncc(N4CCCC4)c3)n2)c(-c2ccccn2)n1` [Compound I-36, N-(1-methyl-3-(pyridin-2-yl)-1H-pyrazol-4-yl)-5′-(pyrrolidin-1-yl)-[2,3′-bipyridine]-6-carboxamide] has an EC50 [1] of 784 nM and an EC50 [2] of 4250 nM.
`Cn1cc(NC(=O)c2cccc(-c3cncc(NC4CCOCC4)c3)n2)c(-c2ccccn2)n1` [Compound I-30, N-(1-methyl-3-(pyridin-2-yl)-1H-pyrazol-4-yl)-5′-((tetrahydro-2H-pyran-4-yl)amino)-[2,3′-bipyridine]-6-carboxamide] gave an EC50 [1] of 3210 nM and an EC50 [2] of 772 nM.
`Cn1cc(NC(=O)c2cccc(-c3cccnc3)n2)c(-c2ccccn2)n1` [Compound I-2, N-(1-methyl-3-(pyridin-2-yl)-1H-pyrazol-4-yl)-[2,3′-bipyridine]-6-carboxamide] was tested, and the EC50 [1] was 2720 nM and the EC50 [2] was 1260 nM.
`CN1CCN(CCn2cc(NC(=O)c3cccc(-c4cn[nH]c4)n3)c(-c3ccccn3)n2)CC1` [Compound I-86, N-(1-(2-(4-methylpiperazin-1-yl)ethyl)-3-(pyridin-2-yl)-1H-pyrazol-4-yl)-6-(1H-pyrazol-4-yl)picolinamide] showed an EC50 [1] of 407 nM and an EC50 [2] of 98.5 nM.
In the case of `COCCOCCn1cc(NC(=O)c2cccc(Nc3ccc4[nH]ncc4c3)n2)c(-c2ccccn2)n1` [Compound I-154, 6-((1H-indazol-5-yl)amino)-N-(1-(2-(2-methoxyethoxy)ethyl)-3-(pyridin-2-yl)-1H-pyrazol-4-yl)picolinamide formate], the EC50 [1] is reported as 6510 nM and the EC50 [2] is reported as 4920 nM.
For `O=C(Nc1cn(C2COC2)nc1-c1ccccn1)c1cccc(Br)n1` [Compound I-113, 6-bromo-N-(1-(oxetan-3-yl)-3-(pyridin-2-yl)-1H-pyrazol-4-yl)picolinamide], the EC50 [1] was 10900 nM and the EC50 [2] was 8040 nM.
Work on `O=C(Nc1cn(C2CCOCC2)nc1-c1ccccn1)c1cccc(-c2cc[nH]n2)n1` [Compound I-166, 6-(1H-pyrazol-3-yl)-N-(3-(pyridin-2-yl)-1-(tetrahydro-2H-pyran-4-yl)-1H-pyrazol-4-yl)picolinamide] yielded an EC50 [1] of 71 nM and an EC50 [2] of 1090 nM.
Work on `Cc1cncc(-c2ccnc(C(=O)Nc3cn(C)nc3-c3ccccn3)n2)c1` [Compound I-120, N-(1-methyl-3-(pyridin-2-yl)-1H-pyrazol-4-yl)-4-(5-methylpyridin-3-yl)pyrimidine-2-carboxamide] yielded an EC50 [1] of 2990 nM and an EC50 [2] of 46900 nM.
`CN1CCN(c2ccc(-c3nn(C)cc3NC(=O)c3cccc(-c4cc[nH]n4)n3)nc2)CC1` [Compound I-175, N-(1-methyl-3-(5-(4-methylpiperazin-1-yl)pyridin-2-yl)-1H-pyrazol-4-yl)-6-(1H-pyrazol-3-yl)picolinamide] showed an EC50 [1] of 6840 nM and an EC50 [2] of 9010 nM.
`Cn1cc(NC(=O)c2cccc(-c3cncc(OC4CCOCC4)c3)n2)c(-c2ccccn2)n1` [Compound I-23, N-(1-methyl-3-(pyridin-2-yl)-1H-pyrazol-4-yl)-5′-((tetrahydro-2H-pyran-4-yl)oxy)-[2,3′-bipyridine]-6-carboxamide] was tested, and the EC50 [1] was 1790 nM and the EC50 [2] was 2290 nM.
Work on `Cn1cc(NC(=O)c2cncc(-c3cc[nH]n3)n2)c(-c2ccccn2)n1` [Compound I-123, N-(1-methyl-3-(pyridin-2-yl)-1H-pyrazol-4-yl)-6-(1H-pyrazol-3-yl)pyrazine-2-carboxamide] yielded an EC50 [1] of 738 nM and an EC50 [2] of 921 nM.
`COc1cncc(-c2cccc(C(=O)Nc3cn(C)nc3-c3ccccn3)n2)c1` [Compound I-19, 5′-methoxy-N-(1-methyl-3-(pyridin-2-yl)-1H-pyrazol-4-yl)-[2,3′-bipyridine]-6-carboxamide] showed an EC50 [1] of 5630 nM and an EC50 [2] of 2540 nM.
`O=C(Nc1cn(C2COC2)nc1-c1ccccn1)c1cccc(-c2cc[nH]n2)n1` [Compound I-117, N-(1-(oxetan-3-yl)-3-(pyridin-2-yl)-1H-pyrazol-4-yl)-6-(1H-pyrazol-3-yl)picolinamide] gave an EC50 [1] of 100 nM and an EC50 [2] of 156 nM.
Work on `Cn1cc(NC(=O)c2cccc(-c3cncc(NCC(F)(F)F)c3)n2)c(-c2ccccn2)n1` [Compound I-33, N-(1-methyl-3-(pyridin-2-yl)-1H-pyrazol-4-yl)-5′-((2,2,2-trifluoroethyl)amino)-[2,3′-bipyridine]-6-carboxamide] yielded an EC50 [1] of 1020 nM and an EC50 [2] of 3160 nM.
`Cn1cc(-c2cccc(C(=O)Nc3cn(C)nc3-c3ccccn3)n2)cn1` [Compound I-8, 6-(1-methyl-1H-pyrazol-4-yl)-N-(1-methyl-3-(pyridin-2-yl)-1H-pyrazol-4-yl)picolinamide] was tested, and the EC50 [1] was 2420 nM and the EC50 [2] was 1700 nM.
